Results: patent publication US7728146B2, “Enzyme inhibitors” (Probiodrug AG, priority 2006, dated 2010)
Like-named read-outs stand apart in the source and are kept apart here.

Biological target: DP IV (Homo sapiens, UniProt P27487)
Assay: DP IV inhibition IC50, parallel-synthesis compounds tested directly following synthesis (without purification)
Format: biochemical
Set-up: IC50 DP4; other: tested directly following parallel synthesis, without purification; compounds of formula (Ib) from parallel synthesis, tested directly following synthesis
Description: Compounds were immediately tested regarding their activity as DP IV inhibitors.
Substances are screened for inhibition of dipeptidyl peptidase (DP IV) by their ability to inhibit the hydrolysis of the DP IV specific substrate Glycyl-Prolyl-4-Nitroanilide (Gly-Pro-pNA). All compounds are diluted in DMSO and IC50 will be determined with 11 serial dilutions (1:2) starting with an final concentration of 100 μM. The final DMSO concentration in the assay is 5% (v/v). The method was automated using a Tecan Genesis Freedom liquid handler and a Genius Pro (Tecan) microplate reader.
DP IV from porcine kidney (pDP IV) or recombinant human DP IV (rhDP IV) is diluted in HEPES buffer to a final activity of approximately 40-50 μU*ml^−1. The DP IV is stored in a cooling rack (4° C.) on the liquid handler.
The assay may becarried out at room temperature using Freedom liquid handler connected with a Genios Pro microplate reader. Each sample is measured in duplicate. Each sample stock solution is prediluted with DMSO in a ratio of 1:5 in a polypropylen 96-well plate. From this predilution 10 serial (1:2) dilutions in DMSO are prepared. 13.5 μl of the 11 DMSO dilutions and DMSO alone are transferred to the measurement microplate (duplicates) and 86.5 μl water, 100 μl HEPES buffer and 50 μl substrate solution are added to each well. The enzymatic reaction is started by addition of 20 μl enzyme solution to each well, and then the microplate is immediately transferred to the microplate reader.
After short mixing (20 s) the release of 4-Nitroanilin (pNA) is monitored at 405 nm for 30 cycles (approx. 18 min).
Post assay calculations are done by the Magellan (Tecan) and Graphit Software. The linear slopes are calculated for each well and averaged for the duplicates. The residue activities are calculated in relation to a sample containing only solvent instead of inhibitor and expressed in %. Residue activities are plotted against the log of inhibitor concentrations and IC50 is calculated by an 4-parameter fitting ranging from 0 to 100%.

[1] = DP IV inhibition, compounds of formula (Ib) from parallel synthesis, tested directly following synthesis (without purification), read-out: IC50
[2] = tested directly following parallel synthesis, without purification, read-out: IC50 DP4

`NCc1c(-c2ccc(Cl)cc2Cl)ncn1CCCc1ccccc1` [91b, C-[5-(2,4-Dichloro-phenyl)-3-(3-phenyl-propyl)-3H-imidazol-4-yl]-methylamine] gave an IC50 [1] of 12.7 µM.

With `NCc1c(-c2ccc(Cl)cc2Cl)ncn1Cc1cc(F)cc(C(F)(F)F)c1` [3b, C-[5-(2,4-Dichloro-phenyl)-3-(3-fluoro-5-trifluoromethyl-benzyl)-3H-imidazol-4-yl]-methylamine] the IC50 [1] was 2.8 µM.

With `NCc1c(-c2ccc(F)cc2F)ncn1Cc1cc(F)ccc1F` [Example 85a, C-[3-(2,5-Difluoro-benzyl)-5-(2,4-difluoro-phenyl)-3H-imid-azol-4-yl]-methyl-amine] the IC50 [2] was 36.1 µM.

`NCc1c(-c2ccc(Cl)cc2Cl)ncn1Cc1ccc(F)cc1` [Example 36a, C-[5-(2,4-Dichloro-phenyl)-3-(4-fluoro-benzyl)-3H-imid-azol-4-yl]-methyl-amine] showed an IC50 [2] of 0.1 µM.

Compound `CC(C)(C)Cn1cnc(-c2ccc(F)cc2Cl)c1CN` [Example 21a, C-[5-(2-Chloro-4-fluoro-phenyl)-3-(2,2-di-methyl-propyl)-3H-imid-azol-4-yl]-methyl-amine] has an IC50 [2] of 35.2 µM.

`Cc1ccc(Cn2cnc(-c3ccc(Cl)cc3Cl)c2CN)cc1` [66b, C-[5-(2,4-Dichloro-phenyl)-3-(4-methyl-benzyl)-3H-imidazol-4-yl]-methylamine] showed an IC50 [1] of 11.8 µM.

For `C[C@H](N)c1c(-c2ccc(Cl)cc2Cl)ncn1CCC(c1ccccc1)c1ccccc1` [88b, (S)-1-[5-(2,4-Dichloro-phenyl)-3-(3,3-diphenyl-propyl)-3H-imidazol-4-yl]-ethylamine], the IC50 [1] was 28 µM.

`CC(N)c1c(-c2ccc(Cl)cc2Cl)ncn1Cc1cccnc1` (stereo not drawn) [78b, 1-[5-(2,4-Dichloro-phenyl)-3-pyridin-3-ylmethyl-3H-imidazol-4-yl]-ethylamine] gave an IC50 [1] of 28 µM.

In the case of `NCc1c(-c2ccc(Cl)cc2Cl)ncn1CCc1cccc(Cl)c1` [52b, C-[3-[2-(3-Chloro-phenyl)-ethyl]-5-(2,4-dichloro-phenyl)-3H-imidazol-4-yl]-methylamine], the IC50 [1] is reported as 5.5 µM.

With `NCCCc1c(-c2ccc(Cl)cc2Cl)ncn1CCc1ccccc1Cl` [90b, 3-[3-[2-(2-Chloro-phenyl)-ethyl]-5-(2,4-dichloro-phenyl)-3H-imidazol-4-yl]-propylamine] the IC50 [1] was 14.5 µM.

Compound `COc1cccc(Cn2cnc(-c3ccc(Cl)cc3Cl)c2C(C)N)c1` (stereo not drawn) [76b, 1-[5-(2,4-Dichloro-phenyl)-3-(3-methoxy-benzyl)-3H-imidazol-4-yl]-ethylamine] has an IC50 [1] of 10 µM.

`CCCn1cnc(-c2ccc(F)cc2Cl)c1CN` [Example 8a, C-[5-(2-Chloro-4-fluoro-phenyl)-3-pro-pyl-3H-imid-azol-4-yl]-methyl-amine] gave an IC50 [2] of 48.7 µM.

`NCc1c(-c2ccc(F)cc2Cl)ncn1Cc1ccccn1` [Example 30a, C-[5-(2-Chloro-4-fluoro-phenyl)-3-pyri-din-2-yl-methyl-3H-imid-azol-4-yl]-methyl-amine] was tested, and the IC50 [2] was 25.3 µM.

In the case of `NCc1c(-c2ccc(F)cc2F)ncn1Cc1ccc(F)cc1Cl` [Example 87a, C-[3-(2-Chloro-4-fluoro-benzyl)-5-(2,4-difluoro-phenyl)-3H-imid-azol-4-yl]-methyl-amine], the IC50 [2] is reported as 25.3 µM.

Work on `CC(N)c1c(-c2ccc(Cl)cc2Cl)ncn1CCc1ccccn1` (stereo not drawn) [73b, 1-[5-(2,4-Dichloro-phenyl)-3-(2-pyridin-2-yl-ethyl)-3H-imidazol-4-yl]-ethylamine] yielded an IC50 [1] of 38.8 µM.

Compound `NCc1c(-c2ccc(Cl)cc2Cl)ncn1CC(c1ccccc1)c1ccccc1` [31b, C-[5-(2,4-Dichloro-phenyl)-3-(2,2-diphenyl-ethyl)-3H-imidazol-4-yl]-methylamine] has an IC50 [1] of 45.1 µM.

Work on `NCc1c(-c2ccc(Cl)cc2Cl)ncn1CCNc1ccccc1` [41b, {2-[5-Aminomethyl-4-(2,4-dichloro-phenyl)-imidazol-1-yl]-ethyl}-phenyl-amine] yielded an IC50 [1] of 32.5 µM.

`NCc1c(-c2ccc(Cl)cc2Cl)ncn1CCCO` [47b, 3-[5-Aminomethyl-4-(2,4-dichloro-phenyl)-imidazol-1-yl]-propan-1-ol] gave an IC50 [1] of 10.9 µM.

Work on `Cc1ccc(-c2ncn(Cc3ccsc3)c2CN)c(C)c1` [Example 67a, C-[5-(2,4-Dimethyl-phenyl)-3-thio-phen-3-yl-methyl-3H-imid-azol-4-yl]-methyl-amine] yielded an IC50 [2] of 42.4 µM.

`COc1ccc(CCn2cnc(-c3ccc(Cl)cc3Cl)c2CN)cc1` [45b, C-{5-(2,4-Dichloro-phenyl)-3-[2-(4-methoxy-phenyl)-ethyl]-3H-imidazol-4-yl}-methylamine] showed an IC50 [1] of 27.1 µM.

In the case of `Clc1ccc(-c2ncn(CCc3ccccc3Cl)c2C2CNC2)c(Cl)c1` [117b, 5-Azetidin-3-yl-1-[2-(2-chloro-phenyl)-ethyl]-4-(2,4-dichloro-phenyl)-1H-imidazole], the IC50 [1] is reported as 39.7 µM.

For `NCc1c(-c2ccc(F)cc2F)ncn1Cc1ccccc1` [Example 80a, C-[3-Benzyl-5-(2,4-di-fluoro-phenyl)-3H-imid-azol-4-yl]-methyl-amine], the IC50 [2] was 19.9 µM.

Compound `CC(N)c1c(-c2ccc(Cl)cc2Cl)ncn1Cc1ccccn1` (stereo not drawn) [96b, 1-[5-(2,4-Dichloro-phenyl)-3-pyridin-2-ylmethyl-3H-imidazol-4-yl]-ethylamine] has an IC50 [1] of 14.5 µM.

`CC(C)(C)Cn1cnc(-c2ccc(Cl)cc2Cl)c1CN` [Example 53a, C-[5-(2,4-Dichloro-phenyl)-3-(2,2-dimethyl-propyl)-3H-imid-azol-4-yl]-methyl-amine] gave an IC50 [2] of 1 µM.

With `COc1ccccc1Cn1cnc(-c2ccc(Cl)cc2Cl)c1C(C)N` (stereo not drawn) [80b, 1-[5-(2,4-Dichloro-phenyl)-3-(2-methoxy-benzyl)-3H-imidazol-4-yl]-ethylamine] the IC50 [1] was 2.8 µM.

`Cc1ccc(Cn2cnc(-c3ccc(F)cc3Cl)c2CN)cc1` [Example 24a, C-[5-(2-Chloro-4-fluoro-phenyl)-3-(4-methyl-benzyl)-3H-imid-dazol-4-yl]-methyl-amine] was tested, and the IC50 [2] was 43.3 µM.

`Cc1cc(Cn2cnc(-c3ccc(Cl)cc3Cl)c2CN)no1` [13b, C-[5-(2,4-Dichloro-phenyl)-3-(5-methyl-isoxazol-3-ylmethyl)-3H-imidazol-4-yl]-methylamine] gave an IC50 [1] of 20.8 µM.

In the case of `CC(C)CCCCCCn1cnc(-c2ccc(Cl)cc2Cl)c1C(C)N` (stereo not drawn) [51b, 1-[5-(2,4-Dichloro-phenyl)-3-(7-methyl-octyl)-3H-imidazol-4-yl]-ethylamine], the IC50 [1] is reported as 37.9 µM.

Work on `C[C@H](N)c1c(-c2ccc(Cl)cc2Cl)ncn1CCc1c[nH]c2cc(Cl)ccc12` [101b, (S)-1-[3-[2-(6-Chloro-1H-indol-3-yl)-ethyl]-5-(2,4-dichloro-phenyl)-3H-imidazol-4-yl]-ethylamine] yielded an IC50 [1] of 47.8 µM.

For `NCc1c(-c2ccc(Cl)cc2Cl)ncn1Cc1ccc(C(F)(F)F)cc1` [98b, C-[5-(2,4-Dichloro-phenyl)-3-(4-trifluoromethyl-benzyl)-3H-imidazol-4-yl]-methylamine], the IC50 [1] was 27.1 µM.

Compound `NCCCc1c(-c2ccc(Cl)cc2Cl)ncn1CCNc1ccc([N+](=O)[O-])cn1` [74b, {2-[5-(3-Amino-propyl)-4-(2,4-dichloro-phenyl)-imidazol-1-yl]-ethyl}-(5-nitro-pyridin-2-yl)-amine] has an IC50 [1] of 12.7 µM.

`NCc1c(-c2ccc(Cl)cc2Cl)ncn1CCN1CCCCC1` [58b, C-[5-(2,4-Dichloro-phenyl)-3-(2-piperidin-1-yl-ethyl)-3H-imidazol-4-yl]-methylamine] was tested, and the IC50 [1] was 42.4 µM.

In the case of `Cc1ccccc1Cn1cnc(-c2ccc(Cl)cc2Cl)c1CN` [Example 46a, C-[5-(2,4-Dichloro-phenyl)-3-(2-methyl-benzyl)-3H-imid-azol-4-yl]-methyl-amine], the IC50 [2] is reported as 1 µM.

With `NCCCc1c(-c2ccc(Cl)cc2Cl)ncn1CCc1cccc(Cl)c1` [107b, 3-[3-[2-(3-Chloro-phenyl)-ethyl]-5-(2,4-dichloro-phenyl)-3H-imidazol-4-yl]-propylamine] the IC50 [1] was 42.4 µM.

For `NCc1c(-c2ccc(Cl)cc2Cl)ncn1Cc1ccc(Cl)cc1Cl` [Example 57a, C-[3-(2,4-Dichloro-benzyl)-5-(2,4-dichloro-phenyl)-3H-imid-azol-4-yl]-methyl-amine], the IC50 [2] was 9.1 µM.

`NCc1c(-c2ccc(Cl)cc2Cl)ncn1CCOCCO` [18b, 2-{2-[5-Aminomethyl-4-(2,4-dichloro-phenyl)-imidazol-1-yl]-ethoxy}-ethanol] showed an IC50 [1] of 20.8 µM.

`COc1ccc(Cn2cnc(-c3ccc(Cl)cc3Cl)c2C(C)N)cc1` (stereo not drawn) [43b, 1-[5-(2,4-Dichloro-phenyl)-3-(4-methoxy-benzyl)-3H-imidazol-4-yl]-ethylamine] was tested, and the IC50 [1] was 27.1 µM.

`NCc1c(-c2ccc(Cl)cc2Cl)ncn1Cc1c(Cl)cccc1Cl` [Example 60a, C-[3-(2,6-Dichloro-benzyl)-5-(2,4-dichloro-phenyl)-3H-imid-azol-4-yl]-methyl-amine] gave an IC50 [2] of 2.8 µM.

`CC(C)CCn1cnc(-c2ccc(Cl)cc2Cl)c1C(C)N` (stereo not drawn) [44b, 1-[5-(2,4-Dichloro-phenyl)-3-(3-methyl-butyl)-3H-imidazol-4-yl]-ethylamine] showed an IC50 [1] of 40.6 µM.
